In BigSolDB 2.1:

COC(=O)c1cc(OC)c2c(c1-c1c(C(=O)OC)cc(OC)c3c1OCO3)OCO2
solubility (mole fraction)
Conditions | 293.15 K | 303.15 K | 313.15 K | 323.15 K | 333.15 K
in acetone | 0.00457 | 0.0068 | 0.0104 | 0.0174 | –
in acetonitrile | 0.00542 | 0.00808 | 0.0123 | 0.0189 | –
in ethanol | 6.48e-05 | 0.000114 | 0.000277 | 0.000523 | 0.00102
in ethyl acetate | 0.00302 | 0.0044 | 0.00659 | 0.0103 | –
in isopropanol | 6.44e-05 | 0.00011 | 0.000223 | 0.000484 | 0.00107
in methanol | 7.18e-05 | 0.000121 | 0.000275 | 0.000459 | –
in methyl acetate | 0.00549 | 0.00775 | 0.0124 | 0.0193 | –
in n-butanol | 5.71e-05 | 0.000114 | 0.000214 | 0.000511 | 0.00104
in n-butyl acetate | 0.00137 | 0.00199 | 0.00318 | 0.00554 | 0.00831
in n-pentanol | 6.14e-05 | 0.000114 | 0.000199 | 0.000388 | 0.00104
in n-pentyl acetate | 0.0011 | 0.00154 | 0.00244 | 0.00387 | 0.00649
in n-propanol | 5.78e-05 | 0.000104 | 0.000211 | 0.000479 | 0.00107
in n-propyl acetate | 0.00171 | 0.00279 | 0.00423 | 0.00659 | 0.0117
